Results reported in patent publication US9663478B2, “Benzotriazine oxides as drugs targeting Mycobacterium tuberculosis” (priority 2011, dated 2017).
Values after ≈ are worked out from the molar mass of the structure shown.

Assays:
in vitro = details: African green monkey, VERO Tox (CC50)
Mtb H37Rv [1] = assay: TB MIC - SRI, resazurin-based microplate assay; assay type: cell-based, Mycobacterium tuberculosis; details: Mycobacterium tuberculosis, H37RV, read-out: TB MIC - SRI
NRP Mtb H37Rv cells = assay: Low-oxygen recovery assay (LORA) MIC; assay type: cell-based, Mycobacterium tuberculosis; details: for MIC: Mycobacterium tuberculosis, H37RV, NRP Mtb, Tables 1-4 and text, read-out: LORA MIC - ITR; for LORA MIC: Tables P1, P2, non-replicating M. tuberculosis
Mtb H37Rv [2] = assay: TB MIC - ITR (UIC), Institute for Tuberculosis Research; assay type: cell-based, Mycobacterium tuberculosis; details: for MIC: Mycobacterium tuberculosis, H37RV, Tables 1-4, read-out: TB MIC - ITR; for TB MIC - UIC: Tables P1, P2
Vero cells = assay: Cytotoxicity against Vero cells (Cell Titer-Glo); details: 72 h; Tables 1-4 and text

Row | SMILES | CC50 at 72 h (in vitro) | MIC (Mtb H37Rv [1]; Tables 1-4 and text) | MIC (NRP Mtb H37Rv cells) | MIC (Mtb H37Rv [2]) | Vero Tox CC50 (Vero cells) | MIC (Mtb H37Rv [1]; Tables P1-P3) | LORA MIC (NRP Mtb H37Rv cells) | TB MIC - UIC (Mtb H37Rv [2])
1 | CCC(COC)Nc1n[n+]([O-])c2cc(F)ccc2[n+]1[O-] (stereo not drawn) [Compound 15ai, 7-fluoro-3-((1-methoxybutan-2-yl)amino)benzo[e][1,2,4]triazine 1,4-dioxide] | 6.3 µg/mL (≈ 22.3 µM) | 5 µg/mL (≈ 17.7 µM) | 1.9 µg/mL (≈ 6.73 µM) | 2 µg/mL (≈ 7.09 µM) |  |  |  | 
2 | CCC(COC)Nc1n[n+]([O-])c2cc(Cl)ccc2[n+]1[O-] (stereo not drawn) [Compound 15bi, 7-chloro-3-((1-methoxybutan-2-yl)amino)benzo[e][1,2,4]triazine 1,4-dioxide] | 2.6 µg/mL (≈ 8.7 µM) | 1.2 µg/mL (≈ 4.02 µM) | 0.78 µg/mL (≈ 2.61 µM) | 1.4 µg/mL (≈ 4.69 µM) |  |  |  | 
3 | O=C(Cn1ccnc1[N+](=O)[O-])NCCO [Etanidazole, reference compound] |  | > 10 µg/mL | 26 µg/mL (≈ 121 µM) | > 32 µg/mL | >16 µg/mL |  |  | 
4 | NNC(=O)c1ccncc1 [INH, Isoniazid, reference compound] |  | 0.06 µg/mL (≈ 0.438 µM) | > 20 µg/mL | 0.091 µg/mL (≈ 0.664 µM) | >50 µg/mL |  |  | 
5 | Cc1ncc([N+](=O)[O-])n1CCO [Metronidazole, reference compound] |  | > 10 µg/mL | 11 µg/mL (≈ 64.3 µM) | > 32 µg/mL | >16 µg/mL |  |  | 
6 | O=C1CN(/N=C/c2ccc([N+](=O)[O-])o2)C(=O)N1 [Nitrofurantoin, reference compound] |  | 16 µg/mL (≈ 67.2 µM) | 32 µg/mL (≈ 134 µM) | 28 µg/mL (≈ 118 µM) | 23 µg/mL |  |  | 
7 | CC(C)(C)C1CCC(Nc2n[n+]([O-])c3ccccc3[n+]2[O-])CC1 (stereo not drawn) [SRI-012257] | 2.3 µg/mL (≈ 7.27 µM) |  |  |  |  | 0.625 µg/mL (≈ 1.98 µM) | < 0.125 µg/mL | 0.22 µg/mL
8 | CC(C)CCC(C)Nc1n[n+]([O-])c2ccccc2[n+]1[O-] (stereo not drawn) [SRI-012259] | 4.1 µg/mL (≈ 14.8 µM) |  |  |  |  | 1.25 µg/mL (≈ 4.52 µM) | 0.38 µg/mL | 0.52 µg/mL
9 | [O-][n+]1nc(NC2CCC2)[n+]([O-])c2ccccc21 [SRI-012260] | 8.9 µg/mL (≈ 38.3 µM) |  |  |  |  | 1.25 µg/mL (≈ 5.38 µM) | 0.84 µg/mL | 0.94 µg/mL
10 | CCC(C)Nc1n[n+]([O-])c2ccccc2[n+]1[O-] (stereo not drawn) [SRI-012262] | 21.6 µg/mL (≈ 92.2 µM) |  |  |  |  | 2.5 µg/mL (≈ 10.7 µM) | 1.28 µg/mL | 2 µg/mL
11 | CC(C)CC(C)Nc1n[n+]([O-])c2ccccc2[n+]1[O-] (stereo not drawn) [SRI-012263] | 11.7 µg/mL (≈ 44.6 µM) |  |  |  |  | 2.5 µg/mL (≈ 9.53 µM) | 0.83 µg/mL | 1.98 µg/mL
12 | CC(C)C(C)Nc1n[n+]([O-])c2ccccc2[n+]1[O-] (stereo not drawn) [SRI-012267] | 21 µg/mL (≈ 84.6 µM) |  |  |  |  | 5 µg/mL (≈ 20.1 µM) | 0.98 µg/mL | 1.93 µg/mL
13 | CC(Nc1n[n+]([O-])c2ccccc2[n+]1[O-])C(C)(C)C (stereo not drawn) [SRI-012268] | 20.2 µg/mL (≈ 77 µM) |  |  |  |  | 5 µg/mL (≈ 19.1 µM) | 1 µg/mL | 2.43 µg/mL
14 | [O-][n+]1nc(NC2[C@H]3C[C@@H]4C[C@@H](C[C@H]2C4)C3)[n+]([O-])c2ccccc21 (stereo partly drawn) [SRI-012269] | 7.3 µg/mL (≈ 23.4 µM) |  |  |  |  | 2.5 µg/mL (≈ 8 µM) | 2.33 µg/mL | 1.91 µg/mL
15 | CC1CC(Nc2n[n+]([O-])c3ccccc3[n+]2[O-])CC(C)(C)C1 (stereo not drawn) [SRI-012270] | 5.2 µg/mL (≈ 17.2 µM) |  |  |  |  | 1.25 µg/mL (≈ 4.13 µM) | 0.39 µg/mL | 0.57 µg/mL
16 | CCC(CC)Nc1n[n+]([O-])c2ccccc2[n+]1[O-] [SRI-012271] | 36.5 µg/mL (≈ 147 µM) |  |  |  |  | 5 µg/mL (≈ 20.1 µM) | 1.94 µg/mL | 3.63 µg/mL
17 | CCC(COC)Nc1n[n+]([O-])c2ccccc2[n+]1[O-] (stereo not drawn) [SRI-012272] | 50 µg/mL (≈ 189 µM) |  |  |  |  | 10 µg/mL (≈ 37.8 µM) | 4.87 µg/mL | 6.57 µg/mL
18 | Nc1n[n+]([O-])c2ccccc2[n+]1[O-] [TPZ, tirapazamine, reference compound] |  | 5 µg/mL (≈ 28.1 µM) | 7.3 µg/mL (≈ 41 µM) | 3.7 µg/mL (≈ 20.8 µM) | 8.0 µg/mL |  |  | 
